Experiments:
Assay type in all cases: physicochemical
[1] = Stability test of ED-71: absorbance measurement at 265 nm (E 1%); conditions: absorbance at 265 nm
Protocol: (§1) Amorphous and crystalline ED-71 compounds were tested for stability at 10, 25 and […]. To estimate the stability, HPLC quantitative assay and absorbance and purity measurements were utilized. The purity was expressed as peak area ratio in percentage in HPLC (% P.A.R.). The test was carried out by using the following procedures:
(§2) About 2 mg portions of each of the amorphous and crystalline samples are precisely weighed into transparent 10 ml test tubes each having screw cap, individually.
(§3) The test tubes are purged with argon using a vacuum desiccator and a glove box. This purging procedure is not applied to the test tubes indicated as “1 M (air)” in the tables below.
(§4) The test tubes in groups are fixed in thermostatic baths which are respectively controlled at the above temperatures and allowed to stand in the dark. After one (1 W) or two (2 W) weeks or one month (1 M), the test tubes are removed from the baths and subjected to the following assay and measurements:
1 ml of the sample solution as prepared in “HPLC quantitative assay” above is diluted with absolute ethanol to give a whole volume of 10 ml and this diluted solution is then measured for the absorbance at 265 nm using a ultraviolet spectrophotometer. The absorbance is converted into E 1% value which is derived from Lambert-Beer Law and the conversion is made according to the following equation: E1%=A/cb wherein A is absorbance, c is concentration in g/100 ml and b is length of optical path in cm across the test solution, which is commonly 1. (4) Purity Measurement

[2] = Stability test of ED-71: purity measurement using reverse phase HPLC; conditions: for Purity Measurement Using Reverse Phase HPLC, ED-71 peak / Purity Measurement Using Reverse Phase HPLC, Other peaks / Purity Measurement Using Reverse Phase HPLC, Pre Form peak: 265 nm
Protocol: as §1, §2, §3, §4
HPLC is carried out using 25 μl of the sample solution as prepared in “HPLC quantitative assay” above. • HPLC conditions used: • Column: Inertsil ODS-2 (5×250 mm) • Mobile phase: acetonitrile/water mixture (55/45) • Flow rate: 1 ml/min • Detection: at UV 265 and 220 nm.

[3] = Stability test of ED-71: purity measurement using normal phase HPLC; conditions: 265 nm
Protocol: as §1, §2, §3, §4
1 ml of the sample solution as prepared in “HPLC quantitative assay” above is dried in vacuo to remove the solvent (absolute ethanol). The residue is dissolved in 1 ml of methylene chloride. HPLC assay is carried out using 25 μl of this solution. • HPLC conditions used: • Column: YMC A-004SIL (4.6×300 mm) • Mobile phase: methylene chloride/methanol mixture (96/4) • Flow rate: 1.8 ml/min • Detection: at UV 265 nm.

**Q.** Which results are given for C=C1/C(=C\C=C2/CCC[C@@]3(C)C2CC[C@@H]3[C@H](C)CCCC(C)(C)O)C[C@@H](O)[C@@H](OCCCO)[C@@H]1O (stereo partly drawn) [Amor., 1α,25-dihydroxy-2β-(3-hydroxypropoxy)vitamin D3]?
**A.** E 1% ([1]; 10° C., 1 M (air), dark): 316.3; E 1% ([1]; 10° C., 1 M, argon, dark): 320.5; E 1% ([1]; 10° C., 2 W, argon, dark): 324.9; E 1% ([1]; 10° C., time 0): 327.5; E 1% ([1]; 25° C., 1 W, argon, dark): 323.0; E 1% ([1]; 25° C., 2 W, argon, dark): 316.9; E 1% ([1]; 25° C., time 0): 327.5; E 1% ([1]; 40° C., 1 W, argon, dark): 313.2; E 1% ([1]; 40° C., 2 W, argon, dark): 304.0; E 1% ([1]; 40° C., time 0): 327.5; 220 nm (%), ED-71 peak ([2]; 10° C., 1 M (air), dark): 92.07%; 220 nm (%), Other peaks ([2]; 10° C., 1 M (air), dark): 5.88%; 220 nm (%), Pre Form peak ([2]; 10° C., 1 M (air), dark): 2.04%; 220 nm (%), ED-71 peak ([2]; 10° C., 1 M, argon, dark): 92.85%; 220 nm (%), Other peaks ([2]; 10° C., 1 M, argon, dark): 5.13%; 220 nm (%), Pre Form peak ([2]; 10° C., 1 M, argon, dark): 2.02%; 220 nm (%), ED-71 peak ([2]; 10° C., 2 W, argon, dark): 92.85%; 220 nm (%), Other peaks ([2]; 10° C., 2 W, argon, dark): 5.13%; 220 nm (%), Pre Form peak ([2]; 10° C., 2 W, argon, dark): 2.02%; 220 nm (%), ED-71 peak ([2]; 10° C., time 0): 93.95%; 220 nm (%), Other peaks ([2]; 10° C., time 0): 4.70%; 220 nm (%), Pre Form peak ([2]; 10° C., time 0): 1.37%; 220 nm (%), ED-71 peak ([2]; 25° C., 1 W, argon, dark): 93.37%; 220 nm (%), Other peaks ([2]; 25° C., 1 W, argon, dark): 5.13%; 220 nm (%), Pre Form peak ([2]; 25° C., 1 W, argon, dark): 1.50%; 220 nm (%), ED-71 peak ([2]; 25° C., 2 W, argon, dark): 92.39%; 220 nm (%), Other peaks ([2]; 25° C., 2 W, argon, dark): 5.68%; 220 nm (%), Pre Form peak ([2]; 25° C., 2 W, argon, dark): 1.93%; 220 nm (%), ED-71 peak ([2]; 25° C., time 0): 93.95%; 220 nm (%), Other peaks ([2]; 25° C., time 0): 4.70%; 220 nm (%), Pre Form peak ([2]; 25° C., time 0): 1.37%; 220 nm (%), ED-71 peak ([2]; 40° C., 1 W, argon, dark): 90.00%; 220 nm (%), Other peaks ([2]; 40° C., 1 W, argon, dark): 7.71%; 220 nm (%), Pre Form peak ([2]; 40° C., 1 W, argon, dark): 2.29%; 220 nm (%), ED-71 peak ([2]; 40° C., 2 W, argon, dark): 87.40%; 220 nm (%), Other peaks ([2]; 40° C., 2 W, argon, dark): 9.72%; 220 nm (%), Pre Form peak ([2]; 40° C., 2 W, argon, dark): 2.88%; 220 nm (%), ED-71 peak ([2]; 40° C., time 0): 93.95%; 220 nm (%), Other peaks ([2]; 40° C., time 0): 4.70%; 220 nm (%), Pre Form peak ([2]; 40° C., time 0): 1.37%; Purity Measurement Using Reverse Phase HPLC, ED-71 peak ([2]; 10° C., 1 M (air), dark): 94.11 % P.A.R; Purity Measurement Using Reverse Phase HPLC, Other peaks ([2]; 10° C., 1 M (air), dark): 4.07 % P.A.R; Purity Measurement Using Reverse Phase HPLC, Pre Form peak ([2]; 10° C., 1 M (air), dark): 1.82 % P.A.R; Purity Measurement Using Reverse Phase HPLC, ED-71 peak ([2]; 10° C., 1 M, argon, dark): 93.05 % P.A.R; Purity Measurement Using Reverse Phase HPLC, Other peaks ([2]; 10° C., 1 M, argon, dark): 5.07 % P.A.R; Purity Measurement Using Reverse Phase HPLC, Pre Form peak ([2]; 10° C., 1 M, argon, dark): 1.88 % P.A.R; Purity Measurement Using Reverse Phase HPLC, ED-71 peak ([2]; 10° C., 2 W, argon, dark): 94.48 % P.A.R; Purity Measurement Using Reverse Phase HPLC, Other peaks ([2]; 10° C., 2 W, argon, dark): 3.77 % P.A.R; Purity Measurement Using Reverse Phase HPLC, Pre Form peak ([2]; 10° C., 2 W, argon, dark): 1.75 % P.A.R; Purity Measurement Using Reverse Phase HPLC, ED-71 peak ([2]; 10° C., time 0): 95.38 % P.A.R; Purity Measurement Using Reverse Phase HPLC, Other peaks ([2]; 10° C., time 0): 3.47 % P.A.R; Purity Measurement Using Reverse Phase HPLC, Pre Form peak ([2]; 10° C., time 0): 1.16 % P.A.R; Purity Measurement Using Reverse Phase HPLC, ED-71 peak ([2]; 25° C., 1 W, argon, dark): 94.78 % P.A.R; Purity Measurement Using Reverse Phase HPLC, Other peaks ([2]; 25° C., 1 W, argon, dark): 3.95 % P.A.R; Purity Measurement Using Reverse Phase HPLC, Pre Form peak ([2]; 25° C., 1 W, argon, dark): 1.27 % P.A.R; Purity Measurement Using Reverse Phase HPLC, ED-71 peak ([2]; 25° C., 2 W, argon, dark): 94.20 % P.A.R; Purity Measurement Using Reverse Phase HPLC, Other peaks ([2]; 25° C., 2 W, argon, dark): 4.08 % P.A.R; Purity Measurement Using Reverse Phase HPLC, Pre Form peak ([2]; 25° C., 2 W, argon, dark): 1.72 % P.A.R; Purity Measurement Using Reverse Phase HPLC, ED-71 peak ([2]; 25° C., time 0): 95.38 % P.A.R; Purity Measurement Using Reverse Phase HPLC, Other peaks ([2]; 25° C., time 0): 3.47 % P.A.R; Purity Measurement Using Reverse Phase HPLC, Pre Form peak ([2]; 25° C., time 0): 1.16 % P.A.R; Purity Measurement Using Reverse Phase HPLC, ED-71 peak ([2]; 40° C., 1 W, argon, dark): 92.47 % P.A.R; Purity Measurement Using Reverse Phase HPLC, Other peaks ([2]; 40° C., 1 W, argon, dark): 5.55 % P.A.R; Purity Measurement Using Reverse Phase HPLC, Pre Form peak ([2]; 40° C., 1 W, argon, dark): 1.98 % P.A.R; Purity Measurement Using Reverse Phase HPLC, ED-71 peak ([2]; 40° C., 2 W, argon, dark): 90.68 % P.A.R; Purity Measurement Using Reverse Phase HPLC, Other peaks ([2]; 40° C., 2 W, argon, dark): 6.78 % P.A.R; Purity Measurement Using Reverse Phase HPLC, Pre Form peak ([2]; 40° C., 2 W, argon, dark): 2.53 % P.A.R; Purity Measurement Using Reverse Phase HPLC, ED-71 peak ([2]; 40° C., time 0): 95.38 % P.A.R; Purity Measurement Using Reverse Phase HPLC, Other peaks ([2]; 40° C., time 0): 3.47 % P.A.R; Purity Measurement Using Reverse Phase HPLC, Pre Form peak ([2]; 40° C., time 0): 1.16 % P.A.R; Purity Measurement Using Normal Phase HPLC, ED-71 peak ([3]; 10° C., 1 M (air), dark): 95.26 % P.A.R; Purity Measurement Using Normal Phase HPLC, Other peaks ([3]; 10° C., 1 M (air), dark): 2.42 % P.A.R; Purity Measurement Using Normal Phase HPLC, Pre Form peak ([3]; 10° C., 1 M (air), dark): 2.31 % P.A.R; Purity Measurement Using Normal Phase HPLC, ED-71 peak ([3]; 10° C., 1 M, argon, dark): 94.58 % P.A.R; Purity Measurement Using Normal Phase HPLC, Other peaks ([3]; 10° C., 1 M, argon, dark): 3.09 % P.A.R; Purity Measurement Using Normal Phase HPLC, Pre Form peak ([3]; 10° C., 1 M, argon, dark): 2.33 % P.A.R; Purity Measurement Using Normal Phase HPLC, ED-71 peak ([3]; 10° C., 2 W, argon, dark): 95.46 % P.A.R; Purity Measurement Using Normal Phase HPLC, Other peaks ([3]; 10° C., 2 W, argon, dark): 2.28 % P.A.R; Purity Measurement Using Normal Phase HPLC, Pre Form peak ([3]; 10° C., 2 W, argon, dark): 2.27 % P.A.R; Purity Measurement Using Normal Phase HPLC, ED-71 peak ([3]; 10° C., time 0): 96.06 % P.A.R; Purity Measurement Using Normal Phase HPLC, Other peaks ([3]; 10° C., time 0): 2.27 % P.A.R; Purity Measurement Using Normal Phase HPLC, Pre Form peak ([3]; 10° C., time 0): 1.67 % P.A.R; Purity Measurement Using Normal Phase HPLC, ED-71 peak ([3]; 25° C., 1 W, argon, dark): 95.97 % P.A.R; Purity Measurement Using Normal Phase HPLC, Other peaks ([3]; 25° C., 1 W, argon, dark): 2.14 % P.A.R; Purity Measurement Using Normal Phase HPLC, Pre Form peak ([3]; 25° C., 1 W, argon, dark): 1.88 % P.A.R; Purity Measurement Using Normal Phase HPLC, ED-71 peak ([3]; 25° C., 2 W, argon, dark): 94.74 % P.A.R; Purity Measurement Using Normal Phase HPLC, Other peaks ([3]; 25° C., 2 W, argon, dark): 3.01 % P.A.R; Purity Measurement Using Normal Phase HPLC, Pre Form peak ([3]; 25° C., 2 W, argon, dark): 2.25 % P.A.R; Purity Measurement Using Normal Phase HPLC, ED-71 peak ([3]; 25° C., time 0): 96.06 % P.A.R; Purity Measurement Using Normal Phase HPLC, Other peaks ([3]; 25° C., time 0): 2.27 % P.A.R; Purity Measurement Using Normal Phase HPLC, Pre Form peak ([3]; 25° C., time 0): 1.67 % P.A.R; Purity Measurement Using Normal Phase HPLC, ED-71 peak ([3]; 40° C., 1 W, argon, dark): 94.47 % P.A.R; Purity Measurement Using Normal Phase HPLC, Other peaks ([3]; 40° C., 1 W, argon, dark): 3.00 % P.A.R; Purity Measurement Using Normal Phase HPLC, Pre Form peak ([3]; 40° C., 1 W, argon, dark): 2.53 % P.A.R; Purity Measurement Using Normal Phase HPLC, ED-71 peak ([3]; 40° C., 2 W, argon, dark): 92.12 % P.A.R; Purity Measurement Using Normal Phase HPLC, Other peaks ([3]; 40° C., 2 W, argon, dark): 4.89 % P.A.R; Purity Measurement Using Normal Phase HPLC, Pre Form peak ([3]; 40° C., 2 W, argon, dark): 2.99 % P.A.R; Purity Measurement Using Normal Phase HPLC, ED-71 peak ([3]; 40° C., time 0): 96.06 % P.A.R; Purity Measurement Using Normal Phase HPLC, Other peaks ([3]; 40° C., time 0): 2.27 % P.A.R; Purity Measurement Using Normal Phase HPLC, Pre Form peak ([3]; 40° C., time 0): 1.67 % P.A.R
